Results as given in ChEMBL document CHEMBL1201862, “PubChem BioAssay data set” (2004).
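Method: 48-hour compound exposure of cells in 96-well plates, five concentrations, linear interpolation of endpoints. At the GI50, growth is halved.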 Calls of active or inactive are those of the source. Cut-off read from the data, not from the text of the source: active = GI50 up to about 1.1 µM and inactive = higher.

Assays:
Test in all cases: inhibition of tumour cell growth, NCI panel, 48 h
COLO 205 = system: COLO 205
HCC 2998 = system: HCC 2998
HOP-92 = system: HOP-92
HT-29 = system: HT-29
LOX IMVI = system: LOX IMVI
M14 = system: M14
Malme-3M = system: Malme-3M
NCI-H522 = system: NCI-H522
OVCAR-8 = system: OVCAR-8
RPMI-8226 = system: RPMI-8226
SF-268 = system: SF-268
SF-539 = system: SF-539
SK-MEL-28 = system: SK-MEL-28
SNB-19 = system: SNB-19
UACC-257 = system: UACC-257
UO-31 = system: UO-31
NCI-H23 = system: NCI-H23
SK-MEL-2 = system: SK-MEL-2

SMILES | GI50 (COLO 205) | GI50 (HCC 2998) | GI50 (HOP-92) | GI50 (HT-29) | GI50 (LOX IMVI) | GI50 (M14) | GI50 (Malme-3M) | GI50 (NCI-H522) | GI50 (OVCAR-8) | GI50 (RPMI-8226) | GI50 (SF-268) | GI50 (SF-539) | GI50 (SK-MEL-28) | GI50 (SNB-19) | GI50 (UACC-257) | GI50 (UO-31) | GI50 (NCI-H23) | GI50 (SK-MEL-2)
O/N=C1\C(=C\c2ccc3c(c2)OCCO3)CCCC1C(NO)c1ccc2c(c1)OCCO2 (configuration not stated) | 32.4 µM (inactive) | 22.6 µM (inactive) | 23.3 µM (inactive) | 17.5 µM (inactive) | 15.7 µM (inactive) | 17.7 µM (inactive) | 25.4 µM (inactive) | 13.8 µM (inactive) | 31.4 µM (inactive) | 16.3 µM (inactive) | 18.2 µM (inactive) | 13.4 µM (inactive) | 18.5 µM (inactive) | 38.7 µM (inactive) | 20.4 µM (inactive) | 26.8 µM (inactive) | – | –
N#CC(C(=O)CCCC(=O)Nc1ccccc1[N+](=O)[O-])c1c(Cl)cccc1Cl (configuration not stated) | > 100 µM (inactive) | > 100 µM (inactive) | 61.9 µM (inactive) | > 100 µM (inactive) | – | > 100 µM (inactive) | > 100 µM (inactive) | > 100 µM (inactive) | > 100 µM (inactive) | > 100 µM (inactive) | > 100 µM (inactive) | > 100 µM (inactive) | > 100 µM (inactive) | > 100 µM (inactive) | > 100 µM (inactive) | > 100 µM (inactive) | > 100 µM (inactive) | > 100 µM (inactive)
O=c1[nH]c(=O)n(C2CC(O)C(CO)O2)cc1C#Cc1c(F)c(F)c(F)c(F)c1F (configuration not stated) | > 100 µM (inactive) | > 100 µM (inactive) | – | > 100 µM (inactive) | > 100 µM (inactive) | > 100 µM (inactive) | > 100 µM (inactive) | > 10 µM (inactive) | > 100 µM (inactive) | > 100 µM (inactive) | > 100 µM (inactive) | > 100 µM (inactive) | > 100 µM (inactive) | > 100 µM (inactive) | > 100 µM (inactive) | > 100 µM (inactive) | > 100 µM (inactive) | > 100 µM (inactive)
COc1nc2c(OC)cccc2c(OC)c1C=O | > 100 µM (inactive) | – | – | > 100 µM (inactive) | > 100 µM (inactive) | > 100 µM (inactive) | > 100 µM (inactive) | > 100 µM (inactive) | > 100 µM (inactive) | > 100 µM (inactive) | – | > 100 µM (inactive) | > 100 µM (inactive) | > 100 µM (inactive) | > 100 µM (inactive) | > 100 µM (inactive) | > 100 µM (inactive) | > 100 µM (inactive)
COC(=O)C12C3C=CC(O3)C1C1C=CC2O1 (configuration not stated) | > 100 µM (inactive) | > 100 µM (inactive) | > 100 µM (inactive) | > 100 µM (inactive) | – | > 100 µM (inactive) | > 100 µM (inactive) | > 100 µM (inactive) | > 100 µM (inactive) | > 100 µM (inactive) | > 100 µM (inactive) | > 100 µM (inactive) | > 100 µM (inactive) | > 100 µM (inactive) | > 100 µM (inactive) | > 100 µM (inactive) | > 100 µM (inactive) | > 100 µM (inactive)
CC(CC(=O)Nc1ccc(NC(=O)CC(C)/N=N\C(N)=S)cc1)/N=N\C(N)=S (configuration not stated) | > 100 µM (inactive) | > 100 µM (inactive) | > 100 µM (inactive) | > 100 µM (inactive) | 57.5 µM (inactive) | > 100 µM (inactive) | > 100 µM (inactive) | – | > 100 µM (inactive) | > 100 µM (inactive) | > 100 µM (inactive) | > 100 µM (inactive) | > 100 µM (inactive) | > 100 µM (inactive) | > 100 µM (inactive) | > 100 µM (inactive) | > 100 µM (inactive) | > 100 µM (inactive)
COC12OCCN(C)C1=CC(=O)C1N=NCC12 (configuration not stated) | > 100 µM (inactive) | > 100 µM (inactive) | > 100 µM (inactive) | > 100 µM (inactive) | > 100 µM (inactive) | > 100 µM (inactive) | – | > 100 µM (inactive) | > 100 µM (inactive) | > 100 µM (inactive) | – | > 100 µM (inactive) | > 100 µM (inactive) | – | > 100 µM (inactive) | > 100 µM (inactive) | > 100 µM (inactive) | –
Cc1ccccc1C(=O)c1cc(O)ccc1O | 50.6 µM (inactive) | 53.8 µM (inactive) | > 100 µM (inactive) | 35.9 µM (inactive) | – | > 100 µM (inactive) | > 100 µM (inactive) | 27.2 µM (inactive) | > 100 µM (inactive) | > 100 µM (inactive) | > 100 µM (inactive) | > 100 µM (inactive) | – | > 100 µM (inactive) | > 100 µM (inactive) | > 100 µM (inactive) | 65 µM (inactive) | 34.6 µM (inactive)
Cc1ccc(S(=O)(=O)O/N=C2\CCC\C2=C/c2ccccc2)cc1 | 16.3 µM (inactive) | 17.7 µM (inactive) | 15.7 µM (inactive) | 25.3 µM (inactive) | 25.9 µM (inactive) | 21.3 µM (inactive) | – | 18.9 µM (inactive) | 29 µM (inactive) | 16 µM (inactive) | 8.87 µM (inactive) | 19.9 µM (inactive) | 11.1 µM (inactive) | 30.5 µM (inactive) | 17.1 µM (inactive) | 19.9 µM (inactive) | 19.4 µM (inactive) | 16.9 µM (inactive)
O=C1Nc2cccc3ncn(c23)C2=C1CCCC2 | > 100 µM (inactive) | > 100 µM (inactive) | – | – | > 100 µM (inactive) | – | > 100 µM (inactive) | > 100 µM (inactive) | > 100 µM (inactive) | > 100 µM (inactive) | > 100 µM (inactive) | > 100 µM (inactive) | > 100 µM (inactive) | > 100 µM (inactive) | > 100 µM (inactive) | > 100 µM (inactive) | > 100 µM (inactive) | > 100 µM (inactive)
COc1ccc2c(c1)CCCC1C3=NCCC3(C)CSC21 (configuration not stated) | 52.6 µM (inactive) | – | – | 32.4 µM (inactive) | 30.2 µM (inactive) | 37.4 µM (inactive) | – | 86.9 µM (inactive) | 59.7 µM (inactive) | 55.8 µM (inactive) | > 100 µM (inactive) | 51.6 µM (inactive) | 36.2 µM (inactive) | > 100 µM (inactive) | – | – | 47.3 µM (inactive) | –
CC(C)c1ccc(/C=C/c2cc(C(=O)NNC(=O)NC3CCCCC3)nc(S)n2)cc1 | > 100 µM (inactive) | > 100 µM (inactive) | > 100 µM (inactive) | > 100 µM (inactive) | > 100 µM (inactive) | > 100 µM (inactive) | > 100 µM (inactive) | > 100 µM (inactive) | > 100 µM (inactive) | > 100 µM (inactive) | > 100 µM (inactive) | > 100 µM (inactive) | > 100 µM (inactive) | > 100 µM (inactive) | > 100 µM (inactive) | > 100 µM (inactive) | > 100 µM (inactive) | –
O=Cc1[nH]c2ccccc2c1Br | 17.7 µM (inactive) | 60.5 µM (inactive) | 26.8 µM (inactive) | 25.1 µM (inactive) | 26.7 µM (inactive) | 19.3 µM (inactive) | 18.5 µM (inactive) | 56.8 µM (inactive) | 23.7 µM (inactive) | – | 22.9 µM (inactive) | 15.3 µM (inactive) | 25.1 µM (inactive) | 24.8 µM (inactive) | 28.5 µM (inactive) | 30.8 µM (inactive) | 30.3 µM (inactive) | 15.2 µM (inactive)
CC[P+]1(CC)CCCC1 | > 100 µM (inactive) | > 100 µM (inactive) | – | > 100 µM (inactive) | > 100 µM (inactive) | > 100 µM (inactive) | > 100 µM (inactive) | – | > 100 µM (inactive) | > 100 µM (inactive) | > 100 µM (inactive) | > 100 µM (inactive) | > 100 µM (inactive) | > 100 µM (inactive) | > 100 µM (inactive) | > 100 µM (inactive) | > 100 µM (inactive) | > 100 µM (inactive)
COC1CC(O[C@H]2CC[C@@]3(C)C(=CCC4(O)C3CCC35C(=O)OC6(C)O[C@@]43CCC65)C2)OC(C)C1O (some centres not stated) | > 100 µM (inactive) | > 100 µM (inactive) | – | > 100 µM (inactive) | – | > 100 µM (inactive) | > 100 µM (inactive) | > 100 µM (inactive) | > 100 µM (inactive) | > 100 µM (inactive) | > 100 µM (inactive) | > 100 µM (inactive) | > 100 µM (inactive) | > 100 µM (inactive) | > 100 µM (inactive) | > 100 µM (inactive) | > 100 µM (inactive) | > 100 µM (inactive)
C[C@@H](C1CCC2C3C(=CC(=O)[C@@]21C)[C@H](C)[C@]1(CCC(=O)O1)C1OC31)[C@H]1C[C@]2(C)O[C@@](C)(O1)OC2(C)C (some centres not stated) | > 100 µM (inactive) | – | > 100 µM (inactive) | > 100 µM (inactive) | > 100 µM (inactive) | > 100 µM (inactive) | – | > 100 µM (inactive) | > 100 µM (inactive) | > 100 µM (inactive) | > 100 µM (inactive) | > 100 µM (inactive) | > 100 µM (inactive) | > 100 µM (inactive) | – | > 100 µM (inactive) | > 100 µM (inactive) | –
C/N=C(\S)N/N=C/C(C)=N/N/C(S)=N/C | > 100 µM (inactive) | > 100 µM (inactive) | – | – | > 100 µM (inactive) | > 100 µM (inactive) | > 100 µM (inactive) | > 100 µM (inactive) | – | 0.583 µM (active) | > 100 µM (inactive) | > 100 µM (inactive) | > 100 µM (inactive) | > 100 µM (inactive) | – | > 100 µM (inactive) | > 100 µM (inactive) | > 100 µM (inactive)
